# Structures can show the parent of a compound that is named as a salt.
# Molecular target: T1, recombinant human α1D receptor (Homo sapiens, UniProt P25100)
# T1 construct: expressed in transfected cells; host or cells: HEK293
# T1 sequence (P25100 1-572): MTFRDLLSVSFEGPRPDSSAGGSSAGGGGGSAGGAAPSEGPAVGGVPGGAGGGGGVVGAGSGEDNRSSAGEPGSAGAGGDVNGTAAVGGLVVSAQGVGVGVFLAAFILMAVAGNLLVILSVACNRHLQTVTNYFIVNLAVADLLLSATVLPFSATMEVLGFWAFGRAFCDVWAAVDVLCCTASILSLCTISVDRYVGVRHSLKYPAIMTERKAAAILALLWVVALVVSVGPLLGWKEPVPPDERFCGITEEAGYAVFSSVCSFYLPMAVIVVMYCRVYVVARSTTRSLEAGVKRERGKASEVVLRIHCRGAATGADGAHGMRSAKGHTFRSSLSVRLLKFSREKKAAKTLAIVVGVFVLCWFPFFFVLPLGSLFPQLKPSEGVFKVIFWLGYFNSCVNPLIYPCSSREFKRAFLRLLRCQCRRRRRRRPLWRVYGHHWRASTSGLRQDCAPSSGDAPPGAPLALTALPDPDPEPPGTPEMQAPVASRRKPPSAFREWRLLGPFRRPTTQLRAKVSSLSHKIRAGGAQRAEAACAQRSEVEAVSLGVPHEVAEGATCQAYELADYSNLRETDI
# Assay: Adrenergic α1D selectivity binding assay ([3H]-prazosin)
# Conditions: inhibition of [3H]-prazosin binding, HEK293 membranes, read-out: α1 bind pIC50 (converted)
# Description: Membranes were prepared from human embryonic kidney 293 (HEK293) cells expressing recombinant human α1D receptor. These were diluted in Assay Buffer (50 mM HEPES, 1 mM EDTA, pH 7.4) to provide a final concentration of membranes that gave a clear window between maximum and minimum specific binding.
# Assays were performed in U-bottomed 96-well polypropylene plates. 10 μl [^3H]-prazosin (0.3 nM final concentration) and 10 μl of test compound (10× final concentration) were added to each test well. For each assay plate 8 replicates were obtained for [^3H]-prazosin binding in the presence of 10 μl vehicle (10% (v/v) DMSO in Assay Buffer; defining maximum binding) or 10 μL BMY7378 (10 μM final concentration; defining non-specific binding (NSB)). Membranes were then added to achieve a final volume of 100 μL. The plates were incubated for 2 h at room temperature and then filtered onto PEI coated GF/B filter plates, pre-soaked for 1 h in Assay Buffer, using a 96-well plate Tomtec cell harvester. Five washes with 250 μl wash buffer (50 mM HEPES, 1 mM EDTA, pH 7.4) were performed at 4° C. to remove unbound radioactivity. The plates were dried then sealed from underneath using Packard plate sealers and MicroScint-O (50 μl) was added to each well. The plates were sealed (TopSeal A) and filter-bound radioactivity was measured with a scintillation counter (TopCount, Packard BioScience) using a 3-minute counting protocol.
# Total specific binding (B0) was determined by subtracting the mean NSB from the mean maximum binding. NSB values were also subtracted from values from all other wells. […] Data was fitted to a four parameter logistic equation to determine the compound potency, which was expressed as pIC50 (negative log molar concentration inducing 50% inhibition of [^3H]-prazosin binding).
row,IC50 [nM],SMILES
1,2000,"Cc1nc(-c2cccc(CCOCCC(=O)N(CCNCCc3ccc(O)c4c3OCC(=O)N4)C3CCCCC3)c2)cn1C [Example 35, N-Cyclohexyl-3-(3-(1,2-dimethyl-1H-imidazol-4-yl)phenethoxy)-N-(2-(2-(5-hydroxy-3-oxo-3,4-dihydro-2H-benzo[b][1,4]oxazin-8-yl)ethylamino)ethyl)propanamide Trifluoroacetic Acid Salt]"
2,1000,"Cc1c(-c2cccc(CCOCCC(=O)N(CCNCCc3ccc(O)c4c3OCC(=O)N4)C3CCCCC3)c2)cnn1C [Example 37, N-Cyclohexyl-3-(3-(1,5-dimethyl-1H-pyrazol-4-yl)phenethoxy)-N-(2-(2-(5-hydroxy-3-oxo-3,4-dihydro-2H-benzo[b][1,4]oxazin-8-yl)ethylamino)ethyl)propanamide Trifluoroacetic Acid Salt]"
3,3980,"Cn1nnnc1-c1cccc(CCOCCC(=O)N(CCNCCc2ccc(O)c3c2OCC(=O)N3)C2CCCCC2)c1 [Example 08, N-Cyclohexyl-N-(2-(2-(5-hydroxy-3-oxo-3,4-dihydro-2H-benzo[b][1,4]oxazin-8-yl)ethylamino)ethyl)-3-(3-(1-methyl-1H-tetrazol-5-yl)phenethoxy)propanamide Trifluoroacetic Acid Salt]"
4,398,"Cn1cc(-c2cccc(CCOCCC(=O)N(CCNCCc3ccc(O)c4c3OCC(=O)N4)C3CCCCCC3)c2)cn1 [Example 31, N-Cycloheptyl-N-(2-(2-(5-hydroxy-3-oxo-3,4-dihydro-2H-benzo[b][1,4]oxazin-8-yl)ethylamino)ethyl)-3-(3-(1-methyl-1H-pyrazol-4-yl)phenethoxy)propanamide Trifluoroacetic Acid Salt]"
5,1000,"O=C1COc2c(CCNCCN(C(=O)CCOCCc3cccc(-c4c[nH]nn4)c3)C3CCCCC3)ccc(O)c2N1 [Example 14, 3-(3-(1H-1,2,3-Triazol-4-yl)phenethoxy)-N-cyclohexyl-N-(2-(2-(5-hydroxy-3-oxo-3,4-dihydro-2H-benzo[b][1,4]oxazin-8-yl)ethylamino)ethyl)propanamide Trifluoroacetic Acid Salt]"
6,2000,"CCn1cc(-c2cccc(CCOCCC(=O)N(CCNCCc3ccc(O)c4c3OCC(=O)N4)C3CCCCC3)c2)nn1 [Example 04, N-Cyclohexyl-3-(3-(1-ethyl-1H-1,2,3-triazol-4-yl)phenethoxy)-N-(2-(2-(5-hydroxy-3-oxo-3,4-dihydro-2H-benzo[b][1,4]oxazin-8-yl)ethylamino)ethyl)propanamide Trifluoroacetic Acid Salt]"
7,2000,"Cn1cc(-c2cccc(CCOCCC(=O)N(CCNCCc3ccc(O)c4c3OCC(=O)N4)C3CCCCC3)c2)nn1 [Example 05, N-Cyclohexyl-N-(2-(2-(5-hydroxy-3-oxo-3,4-dihydro-2H-benzo[b][1,4]oxazin-8-yl)ethylamino)ethyl)-3-(3-(1-methyl-1H-1,2,3-triazol-4-yl)phenethoxy)propanamide Trifluoroacetic Acid Salt]"

# Continued, molecule first:
row,SMILES,IC50 [nM]
1,"C[C@@H](N(CCNCCc1ccc(O)c2c1OCC(=O)N2)C(=O)CCOCCc1cccc(-c2cnn(C)c2)c1)C(C)(C)C [Example 26, (R)—N-(3,3-Dimethylbutan-2-yl)-N-(2-(2-(5-hydroxy-3-oxo-3,4-dihydro-2H-benzo[b][1,4]oxazin-8-yl)ethylamino)ethyl)-3-(3-(1-methyl-1H-pyrazol-4-yl)phenethoxy)propanamide Trifluoroacetic Acid Salt]",501
2,"Cc1nc(-c2cccc(CCOCCC(=O)N(CCNCCc3ccc(O)c4c3OCC(=O)N4)C3CCCCC3)c2)[nH]c1C [Example 32, N-Cyclohexyl-3-(3-(4,5-dimethyl-1H-imidazol-2-yl)phenethoxy)-N-(2-(2-(5-hydroxy-3-oxo-3,4-dihydro-2H-benzo[b][1,4]oxazin-8-yl)ethylamino)ethyl)propanamide]",631
3,"CCn1cc(-c2cccc(CCOCCC(=O)N(CCNCCc3ccc(O)c4c3OCC(=O)N4)C3CCCCC3)c2)cn1 [Example 28, N-Cyclohexyl-3-(3-(1-ethyl-1H-pyrazol-4-yl)phenethoxy)-N-(2-(2-(5-hydroxy-3-oxo-3,4-dihydro-2H-benzo[b][1,4]oxazin-8-yl)ethylamino)ethyl)propanamide]",794
4,"Cn1cc(-c2cc(CCOCCC(=O)N(CCNCCc3ccc(O)c4c3OCC(=O)N4)C3CCCCC3)ccc2F)cn1 [Example 13, N-Cyclohexyl-3-(4-fluoro-3-(1-methyl-1H-pyrazol-4-yl)phenethoxy)-N-(2-(2-(5-hydroxy-3-oxo-3,4-dihydro-2H-benzo[b][1,4]oxazin-8-yl)ethylamino)ethyl)propanamide Trifluoroacetic Acid Salt]",631
5,"CCn1cc(-c2cccc(CCOCCC(=O)N(CCNCCc3ccc(O)c4c3OCC(=O)N4)[C@H](C)C(C)(C)C)c2)cn1 [Example 25, (R)—N-(3,3-Dimethylbutan-2-yl)-3-(3-(1-ethyl-1H-pyrazol-4-yl)phenethoxy)-N-(2-(2-(5-hydroxy-3-oxo-3,4-dihydro-2H-benzo[b][1,4]oxazin-8-yl)ethylamino)ethyl)propanamide Trifluoroacetic Acid Salt]",316
6,"CCC[C@@H](C)N(CCNCCc1ccc(O)c2c1OCC(=O)N2)C(=O)CCOCCc1cccc(-c2cnn(C(C)C)c2)c1 [Example 21, (R)—N-(2-(2-(5-Hydroxy-3-oxo-3,4-dihydro-2H-benzo[b][1,4]oxazin-8-yl)ethylamino)ethyl)-3-(3-(1-isopropyl-1H-pyrazol-4-yl)phenethoxy)-N-(pentan-2-yl)propanamide Trifluoroacetic Acid Salt]",794
7,"CCCC[C@@H](C)N(CCNCCc1ccc(O)c2c1OCC(=O)N2)C(=O)CCOCCc1cccc(-c2cnn(C)c2)c1 [Example 30, (R)—N-(Hexan-2-yl)-N-(2-(2-(5-hydroxy-3-oxo-3,4-dihydro-2H-benzo[b][1,4]oxazin-8-yl)ethylamino)ethyl)-3-(3-(1-methyl-1H-pyrazol-4-yl)phenethoxy)propanamide Trifluoroacetic Acid Salt]",1000
8,"O=C1COc2c(CCNCCN(C(=O)CCOCCc3cccc(-c4cnn(CC5CC5)c4)c3)C3CCCC3)ccc(O)c2N1 [Example 19, N-Cyclopentyl-3-(3-(1-(cyclopropylmethyl)-1H-pyrazol-4-yl)phenethoxy)-N-(2-(2-(5-hydroxy-3-oxo-3,4-dihydro-2H -benzo[b][1,4]oxazin-8-yl)ethylamino)ethyl)propanamide Trifluoroacetic Acid Salt]",1000
9,"CC(C)[C@@H](C)N(CCNCCc1ccc(O)c2c1OCC(=O)N2)C(=O)CCOCCc1cccc(-c2cnn(C)c2)c1 [Example 09, (R)—N-(2-(2-(5-Hydroxy-3-oxo-3,4-dihydro-2H-benzo[b][1,4]oxazin-8-yl)ethylamino)ethyl)-3-(3-(1-methyl-1H-pyrazol-4-yl)phenethoxy)-N-(3-methylbutan-2-yl)propanamide Trifluoroacetic Acid Salt]",1000
10,"Cn1cc(-c2cccc(CCOCCC(=O)N(CCNCCc3ccc(O)c4c3OCC(=O)N4)C3CCCCC3)c2F)cn1 [Example 16, N-Cyclohexyl-3-(2-fluoro-3-(1-methyl-1H-pyrazol-4-yl)phenethoxy)-N-(2-(2-(5-hydroxy-3-oxo-3,4-dihydro-2H-benzo[b][1,4]oxazin-8-yl)ethylamino)ethyl)propanamide Trifluoroacetic Acid Salt]",501
11,"CCn1ccnc1-c1cccc(CCOCCC(=O)N(CCNCCc2ccc(O)c3c2OCC(=O)N3)C2CCCCC2)c1 [Example 29, N-Cyclohexyl-3-(3-(1-ethyl-1H-imidazol-2-yl)phenethoxy)-N-(2-(2-(5-hydroxy-3-oxo-3,4-dihydro-2H-benzo[b][1,4]oxazin-8-yl)ethylamino)ethyl)propanamide Trifluoroacetic Acid Salt]",1580
12,"CCn1cc(-c2cccc(CCOCCC(=O)N(CCNCCc3ccc(O)c4c3OCC(=O)N4)C3CCCC3)c2)cn1 [Example 24, N-Cyclopentyl-3-(3-(1-ethyl-1H-pyrazol-4-yl)phenethoxy)-N-(2-(2-(5-hydroxy-3-oxo-3,4-dihydro-2H-benzo[b][1,4]oxazin-8-yl)ethylamino)ethyl)propanamide Trifluoroacetic Acid Salt]",1260

# Reference: patent publication US8017602B2, “N-(2-(2-(5-hydroxy-3-oxo-3,4-dihydro-2H-benzo[b][1,4]oxazin-8-yl)ethylamino)ethyl)-3-(phenethoxy)propanamide derivatives, processes for their preparation, pharmaceutical compositions containing them and their use in therapy” (AstraZeneca AB, priority 2008, dated 2011)
